The source of these data is ChEMBL document CHEMBL5329217, “Hesperidin Methyl Chalcone reduces extracellular Aβ(25-35) peptide aggregation and fibrillation and also protects Neuro 2a cells from Aβ(25-35) induced neuronal dysfunction” (Bioorg Med Chem, 2023).

Assay [1] addresses Amyloid-beta precursor protein (Homo sapiens) (UniProt P05067). Briefly: Disaggregation of amyloid beta (25 to 35) (unknown origin) mature fibrils at 50 ug/ml incubated for 1 to 9 days by ThT-based fluorescence microscopic analysis. Particulars: dose 50.0 µg/ml, time 1-9 day.
The test system of assay [2] is N2a. Nature of the assay: Inhibition of Amyloid beta (25 to 35)-induced oxidative damage in mouse Neuro2a cells assessed as reduction in ROS production by measuring reduction in fluorescence intensity at 50 ug/ml pretreated for 2 hrs followed by amyloid beta (25 to 35) addition and measured after 24 hrs by DCFH-DA staining -based spectrofluorimetric assay. Format: functional, cell-based. Particulars: dose 50.0 µg/ml, time 26.0 hrs.

For assay [3], the system named is N2a. Nature of the assay: Inhibition of Amyloid beta (25 to 35)-induced macromolecular damage in mouse Neuro2a cells assessed as reduction in lipid peroxidation by measuring MDA content at 50 ug/ml pretreated for 2 hrs followed by amyloid beta (25 to 35) addition and measured after 24 hrs per mg protein (reference value: 106.4 +/-1.9 nmol). Format: functional. Particulars: dose 50 µg/ml; time 26 hrs.

Assay [4] concerns N2a. Briefly: Inhibition of Amyloid beta (25 to 35)-induced macromolecular damage in mouse Neuro2a cells assessed as reduction in protein oxidation by measuring protein carbonyl content at 50 ug/ml pretreated for 2 hrs followed by amyloid beta (25 to 35) addition and measured after 24 hrs per mg protein (reference value: 44.06 +/- 1.02 […]). It counts as functional. Conditions: dose 50 µg/ml; time 26 hrs.

In assay [5] the test system is N2a. Briefly: Inhibition of Amyloid beta (25 to 35)-induced mitochondrial membrane potential loss in mouse Neuro2a cells at 50 ug/ml pretreated for 2 hrs followed by amyloid beta (25 to 35) addition and measured after 24 hrs by rhodamine 123 staining based fluorescent spectrophotometry. Format: functional, cell-based. Particulars: dose 50.0 µg/ml, time 26.0 hrs.
The test system of assay [6] is N2a. Nature of the assay: Neuroprotective activity against Amyloid beta (25 to 35)-induced toxicity in mouse Neuro2a cells assessed as non-apoptotic viable cells at 50 ug/ml pretreated for 2 hrs followed by amyloid beta (25 to 35) addition and measured after 24 hrs by AO/EtBr dual staining based fluorescence microscopy (reference value: 53.4 +/-3.88%). It counts as functional. Conditions: dose 50 µg/ml; time 26 hrs.

Assay [7] has as its system N2a. Briefly: Inhibition of Amyloid beta (25 to 35)-induced apoptosis in mouse Neuro2a cells assessed as Bax/Bcl2 ratio at 50 ug/ml pretreated for 2 hrs followed by amyloid beta (25 to 35) addition and measured after 24 hrs by Western blot analysis (reference value: 1.09 +/- 0.018). Format: functional. Conditions: dose 50 µg/ml; time 26 hrs. Background: A western blot detects proteins with antibodies after separation by electrophoresis.

Calls of active or inactive are those of the source. The calls are words filed in the database; no cut-off is given here.

Chain of Amyloid-beta precursor protein (Homo sapiens) (P05067 whole entry): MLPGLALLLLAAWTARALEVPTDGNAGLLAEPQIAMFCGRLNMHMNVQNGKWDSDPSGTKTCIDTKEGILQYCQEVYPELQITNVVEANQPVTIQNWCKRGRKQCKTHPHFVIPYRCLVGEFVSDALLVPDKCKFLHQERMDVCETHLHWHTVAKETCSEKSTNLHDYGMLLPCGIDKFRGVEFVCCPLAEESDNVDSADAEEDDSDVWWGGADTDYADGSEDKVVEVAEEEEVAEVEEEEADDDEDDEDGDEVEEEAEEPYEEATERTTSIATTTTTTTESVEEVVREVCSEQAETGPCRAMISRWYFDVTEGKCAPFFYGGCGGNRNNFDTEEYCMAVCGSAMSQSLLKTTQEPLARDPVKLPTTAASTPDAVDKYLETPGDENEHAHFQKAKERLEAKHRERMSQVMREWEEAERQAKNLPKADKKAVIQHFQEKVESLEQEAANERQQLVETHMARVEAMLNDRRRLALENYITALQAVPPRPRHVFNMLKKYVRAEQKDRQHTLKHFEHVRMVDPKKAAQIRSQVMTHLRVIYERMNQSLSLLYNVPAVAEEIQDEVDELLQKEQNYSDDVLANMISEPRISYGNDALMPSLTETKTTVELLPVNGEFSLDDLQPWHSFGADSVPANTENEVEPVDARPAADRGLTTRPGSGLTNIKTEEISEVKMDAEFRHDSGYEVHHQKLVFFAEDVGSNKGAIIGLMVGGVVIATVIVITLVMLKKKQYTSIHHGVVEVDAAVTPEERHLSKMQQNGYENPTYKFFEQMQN

For the compound `COc1ccc2c3c1O[C@H]1C[C@@H](O)C=C[C@@]31CCN(C)C2`, the result in assay [1] was Active.
As to `COc1cc2c(cc1OC)C(=O)C(CC1CCN(Cc3ccccc3)CC1)C2` (configuration not stated) [DONEPEZIL], the inhibition result in assay [2] and in assay [5] was “Active” each time. The Activity in assay [3] turned out to be 56.6 nmol; in assay [4], 25.1 nmol/mg; in assay [6], 79%. In addition, the Ratio in assay [7] is 0.57.
